The source of these data is patent publication US20160008298A1, “XANTHOHUMOL-BASED COMPOUNDS AND COMPOSITIONS THEREOF, AND METHODS OF MAKING AND USING THE SAME” (Oregon State University, priority 2014, published 2016).

This data set in a line: Dissolution in Seahorse running medium. The format is physicochemical. The conditions noted are these: 0.1% of FBS, 37° C.

For the compound `COc1cc(O)c(CC=C(C)C)c(O)c1C(=O)CCc1ccc(O)cc1` [DXN, α,β-dihydroxanthohumol], the “concentration dissolved in running medium” value is given as “up to 25 μM”.
